What all share (experiment): CDKi biochemical assay (TR-FRET, phosphorylation of S780 on RB1 peptide)
On the technique in general: In TR-FRET formats the signal depends on donor and acceptor labels being close together.

For one experiment, the target named is CDK2/CyclinE1 (Homo sapiens, UniProt P24941). As to conditions: CDK2/CyclinE1 100 pM, 1 mM ATP, 60 min at 25° C. As for the experimental part:
(§1) Biochemical assays measured the inhibitory effects of compounds in this disclosure on the enzymatic activity of CDK enzyme in complex with Cyclin protein partner by phosphorylation of Ser-780 (S780) on retinoblastoma protein peptide (RB1) in the presence of 1 mM adenosime-5-triphosphate (ATP) and varying concentration of test compound in 20 mM 2-[4-(2-hydroxyethyl)paperazin-1-yl] ethanesulfonic acid (HEPES), pH 7.5, 10 mM MgCl2, 1 mM dithiothreitol (DTT), 0.01% bovine serum albumin (BSA), 0.005% Tween 20. Total Reaction volume of 10 μL proceeded for 60 minutes at room temperature (25° C.) and were quenched with 5 μL of 200 mM 2′,2″,2′″-(Ethane-1,2-diyldinitrilo)tetraacetic acid (EDTA) pH 8.0 before addition of 5 μL detection solution containing 100 nM fluorophore conjugate streptavidin allophycocyanin (SA-APC), 2 nM Europium labelled Anti-p-RB(S780)-K (Perkin Elmer, 64CUSKAY), 50 mM HEPES, pH 7.5, 400 mM potassium fluoride (KF), 0.1% BSA, and 0.01% Tween-20. Phosphorylation of S780 on RB1 peptide (His-MBP-RB1[773-924]-SEQ ID NO. 9) was detected by TR-FRET after 3 hour incubation with detection solution. Percent phosphorylation activity was plotted against log concentration of compound to generate an apparent ICSO. The following CDK enzyme in complex with different cyclin proteins and protein peptide substrate were used in these assays: • CDK1/CyclinB1, Avi-tag, 10 pM used in the assay • CDK2/CyclinE1, Avi-tag, 100 pM used in the assay • CDK4/cyclinD1, Avi-tag, 20 pM used in the assay • CDK6/cyclinD3, Avi-tag, 10 pM used in the assay • His-MBP-RB1[773-924], Avi-tag, 200 nM used in the assay
(§2) The avi-tag is a C-terminal fusion on the CDK1/2/4/6 sequence in each of these two-protein complexes. The known avi-tag sequence, […] (SEQ ID NO. 10), is a substrate for E. coli biotin ligase BirA, which covalently attaches a biotin molecule to the e-amino group of the lysine in that sequence. The avi-tag is attached with an 8 amino-acid linker sequence GGSGGGGS (SEQ ID NO. 11), resulting in the full C-terminal fusion
(§3) Recombinant proteins were generated as N-terminal fusions of 9× His tag—E. coli Maltose Binding Protein (MBP), with or without a C-terminal Avi-tag.^1 CDK2 and His-MBP-RB1[773-924]-c-avi were expressed in E. coli while the remainder were expressed in Sf21 insect cells. Genes were synthesized commercially (GeneArt and Twist Bioscience) using codon frequencies appropriate to the respective organisms and proprietary codon optimization strategies, and inserted into pET 24 (E. coli) or pDEST8 (insect) vectors already containing the 9× His-MBP tag using standard methods of PCR and Gibson Assembly.^2 E. coli expression was performed by auto-induction overnight at 18 or 21 C. For insect cell expression, bacmids and viruses were created,^3 then used to synchronously infect Sf21 insect cells with harvest at 40-48 hrs., per standard protocols.^4
(§4) For CDK2/Cyclin E and CDK1/Cyclin B, the CDK and Cyclin proteins were expressed separately, lysed by sonication and clarified by centrifugation. The fusion proteins were each separately purified by immobilized metal ion affinity chromatography (IMAC) (5 mL HisTrap, Cytiva) and Superdex 200 26/60 (Cytiva) size-exclusion and complexed in vitro (1-3 hrs incubation at room temperature) prior to tag cleavage by recombinant his-tagged Tobacco Etch Virus protease or his-tagged Human rhinovirus 3C protease, as appropriate. The cleaved complex is further purified by Superdex 75 26/60 (Cytiva) size-exclusion followed by reverse-IMAC, in which the complex is in the column flow-through and residual His-MBP and his-tagged proteases are retained. The final complex is concentrated as desired by centrifugal concentration (Amicon Ultra 10,000 Da MWCO 15 mL concentrators, Millipore).
For E. coli expressed CDK2 and His-MBP-RB1[773-924]-c-avi, the proteins were biotinylated in vitro after the first IMAC step.^1
(§5) For the is-MBP-RB1[773-924]-c-avi, the protein was lysed by sonication and clarified by centrifugation. […]

The target in the next experiment is CDK1/CyclinB1 (Homo sapiens, UniProt P06493). The following applies: CDK1/CyclinB1 10 pM, 1 mM ATP, 60 min at 25° C. As for the experimental part: as §1, §2, §3, §4, §5
The target of a further experiment is CDK4/cyclinD1 (Homo sapiens, UniProt P11802). As to conditions: CDK4/cyclinD1 20 pM, 1 mM ATP, 60 min at 25° C. The protocol: as §1, §2, §3
(§6) For CDK4/Cyclin D1 and CDK6/Cyclin D3, the complexes were expressed by simultaneous co-infection of insect cells by three separate viruses including one expressing untagged E. coli BirA. The expression media is supplemented with 50 uM d-biotin. The resulting protein complexes purified similarly. After lysis and clarification, the complex is purified by IMAC, Superdex 200 26/60 size exclusion, tag cleavage by human rhinovirus 3C protease, Superdex 75 26/60 size exclusion and reverse IMAC. BirA is typically not retained on the first IMAC, and excess CDK or Cyclin monomer is separated on the Superdex 200 size exclusion. Cleaved His-MBP and remaining monomer are removed by the Superdex 75 size exclusion and the reverse IMAC step. Final concentration by centrifugal concentrators as described above.
as §5

For the next experiment, the target named is CDK6/cyclinD3 (Homo sapiens, UniProt Q00534). As to conditions: CDK6/cyclinD3 10 pM, 1 mM ATP, 60 min at 25° C. The protocol: as §1, §2, §3, §6, §5

IC50 data for nine compounds are collected here from US20240360137A1 (Novartis AG, priority 2023, published 2024).

Broadly, the IC50 is the concentration needed to halve the response being measured. Turning to `O=C1N([C@@H]2CCC[C@@H](O)C2)c2nc(Nc3c[nH]nc3OC[C@@H]3CCOC3)ncc2C12CC2` [Example 71, 7′-((1R,3R)-3-hydroxycyclohexyl)-2′-((3-(((R)-tetrahydrofuran-3-yl)methoxy)-1H-pyrazol-4-yl)amino)spiro[cyclopropane-1,5′-pyrrolo[2,3-d]pyrimidin]-6′(7′H)-one], the concentration for half-maximal inhibition (IC50) against CDK2/CyclinE1 was 0.044 µM; against CDK1/CyclinB1, 7.59 µM; at CDK4/cyclinD1 it was not below 10 µM; against CDK6/cyclinD3, not below 10 µM.

In the case of `COCCn1cc(Nc2ncc3c(n2)N([C@@H]2CCC[C@@H](O)C2)C(=O)C32CC2)cn1` [Example 16, 7′-((1R,3R)-3-hydroxycyclohexyl)-2′-((1-(2-methoxyethyl)-1H-pyrazol-4-yl)amino)spiro[cyclopropane-1,5′-pyrrolo[2,3-d]pyrimidin]-6′(7′H)-one], the IC50 was 0.049 µM against CDK2/CyclinE1, 2.36 µM on CDK1/CyclinB1, 1.23 µM against CDK4/cyclinD1 and 1.8 µM on CDK6/cyclinD3.

For `Cn1cc(-c2n[nH]cc2Nc2ncc3c(n2)N([C@@H]2CCC[C@@H](O)C2)C(=O)C32CC2)cn1` [Example 80, 7′-((1R,3R)-3-hydroxycyclohexyl)-2′-((1′-methyl-1H,1′H-[3,4′-bipyrazol]-4-yl)amino)spiro[cyclopropane-1,5′-pyrrolo[2,3-d]pyrimidin]-6′(7′H)-one], the IC50 against CDK2/CyclinE1 was 0.029 µM; against CDK1/CyclinB1, 6.01 µM; on CDK4/cyclinD1, 9.3 µM; against CDK6/cyclinD3, not below 10 µM.

For the compound `Cc1c(-c2n[nH]cc2Nc2ncc3c(n2)N([C@@H]2CCC[C@@H](O)C2)C(=O)C32CC2)cnn1C` [Example 37, 2′-((1′,5′-dimethyl-1H,1′H-[3,4′-bipyrazol]-4-yl)amino)-7′-((1R,3R)-3-hydroxycyclohexyl)spiro[cyclopropane-1,5′-pyrrolo[2,3-d]pyrimidin]-6′(7′H)-one], the IC50 was 0.031 µM against CDK2/CyclinE1, not below 10 µM on CDK1/CyclinB1, not below 10 µM against CDK4/cyclinD1 and not below 10 µM on CDK6/cyclinD3.

Turning to `O=C1N([C@@H]2CCC[C@@H](O)C2)c2nc(Nc3c[nH]nc3O[C@@H]3CCOC3)ncc2C12CC2` [Example 63, 7′-((1R,3R)-3-hydroxycyclohexyl)-2′-((3-(((R)-tetrahydrofuran-3-yl)oxy)-1H-pyrazol-4-yl)amino)spiro[cyclopropane-1,5′-pyrrolo[2,3-d]pyrimidin]-6′(7′H)-one], the IC50 against CDK2/CyclinE1 was 0.043 µM; against CDK1/CyclinB1, 3.69 µM; on CDK4/cyclinD1 it was not below 10 µM; against CDK6/cyclinD3 it was not below 10 µM.

On to `O=C1N([C@@H]2CCC[C@@H](O)C2)c2nc(Nc3c[nH]nc3OC[C@H]3COCCO3)ncc2C12CC2` [Example 66, 2′-((3-(((R)-1,4-dioxan-2-yl)methoxy)-1H-pyrazol-4-yl)amino)-7′-((1R,3R)-3-hydroxycyclohexyl)spiro[cyclopropane-1,5′-pyrrolo[2,3-d]pyrimidin]-6′(7′H)-one], for which the IC50 against CDK2/CyclinE1 was 0.051 µM; at CDK1/CyclinB1 it was 4.22 µM; against CDK4/cyclinD1 it was not below 10 µM; against CDK6/cyclinD3, not below 10 µM.

On to `CCOc1n[nH]cc1Nc1ncc2c(n1)N([C@@H]1CCC[C@@H](O)C1)C(=O)C21CC1` [Example 23, 2′-((3-ethoxy-1H-pyrazol-4-yl)amino)-7′-((1R,3R)-3-hydroxycyclohexyl)spiro[cyclopropane-1,5′-pyrrolo[2,3-d]pyrimidin]-6′(7′H)-one], for which the IC50 on CDK2/CyclinE1 was 0.015 µM; at CDK1/CyclinB1 it was 2.43 µM; on CDK4/cyclinD1 it was 9.45 µM; at CDK6/cyclinD3, not below 10 µM.

For `CSc1n[nH]cc1Nc1ncc2c(n1)N([C@@H]1CCC[C@@H](O)C1)C(=O)C21CC1` [Example 52, 7′-((1R,3R)-3-hydroxycyclohexyl)-2′-((3-(methylthio)-1H-pyrazol-4-yl)amino)spiro[cyclopropane-1,5′-pyrrolo[2,3-d]pyrimidin]-6′(7′H)-one], the half-maximal inhibitory concentration (IC50) at CDK2/CyclinE1 is 0.031 µM; at CDK1/CyclinB1, 5.32 µM; against CDK6/cyclinD3, not below 10 µM.

`COc1n[nH]cc1Nc1ncc2c(n1)N([C@@H]1CCCC[C@@H](O)C1)C(=O)C21CC1` [Example 18]: the IC50 on CDK2/CyclinE1 was 0.114 µM; against CDK1/CyclinB1 it was not below 10 µM; at CDK4/cyclinD1, not below 10 µM.
